Assays:
Test in all cases: Bliss excess, mean over the matrix (fraction); higher = more synergy
GAMG (Glioblastoma) = test system: GAMG (Glioblastoma)
Method in brief: (§1)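 After 24 hours at 37°C and 5% CO2 in 1536-well plates, cells in DMEM/F12 or RPMI plus 10% FBS received two-drug dose matrices for 72 hours. Viability came from CellTiter-Glo 2.0 luminescence and was scaled as inhibition, anchored at 0 by vehicle wells and at 1 by blank wells. Combination Emax is taken as the second-highest inhibition in the matrix, and Bliss excess as the observed combination effect less EA + EB − EA·EB, with EA and EB the single-agent effects.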

[1] = test system: BFTC-909 (Kidney Carcinoma)
Method in brief: as §1

[2] = test system: NUGC-4 (Gastric Carcinoma)
Method in brief: as §1

LOXIMVI (Melanoma) = test system: LOXIMVI (Melanoma)
Method in brief: as §1

[3] = test system: BE-13 (T-Lymphoblastic Leukemia)
Method in brief: as §1

[4] = test system: SNU-16 (Gastric Carcinoma)
Method in brief: as §1

[5] = test system: LNZTA3WT4 (Low Grade Glioma)
Method in brief: as §1

[6] = test system: HeLa (Cervical Carcinoma)
Method in brief: as §1

[7] = test system: SNU-449 (Hepatocellular Carcinoma)
Method in brief: as §1

[8] = test system: SW1710 (Bladder Carcinoma)
Method in brief: as §1

[9] = test system: HuCCT1 (Biliary Tract Carcinoma)
Method in brief: as §1

MPP-89 (Mesothelioma) = test system: MPP-89 (Mesothelioma)
Method in brief: as §1

[10] = test system: HH (T-Cell Non-Hodgkin's Lymphoma)
Method in brief: as §1

[11] = test system: OV-56 (Ovarian Carcinoma)
Method in brief: as §1

[12] = test system: L-428 (Hodgkin's Lymphoma)
Method in brief: as §1

[13] = test system: FTC-133 (Thyroid Gland Carcinoma)
Method in brief: as §1

[14] = test system: NCI-H209 (Small Cell Lung Carcinoma)
Method in brief: as §1

[15] = test system: SAS (Oral Cavity Carcinoma)
Method in brief: as §1

[16] = test system: SW1573 (Lung Adenocarcinoma)
Method in brief: as §1

[17] = test system: KMRC-20 (Kidney Carcinoma)
Method in brief: as §1

SMILES	Bliss excess (GAMG (Glioblastoma))	Bliss excess [1]	Bliss excess [2]	Bliss excess (LOXIMVI (Melanoma))	Bliss excess [3]	Bliss excess [4]	Bliss excess [5]	Bliss excess [6]	Bliss excess [7]	Bliss excess [8]	Bliss excess [9]	Bliss excess (MPP-89 (Mesothelioma))	Bliss excess [10]	Bliss excess [11]	Bliss excess [12]	Bliss excess [13]	Bliss excess [14]	Bliss excess [15]	Bliss excess [16]	Bliss excess [17]
CC1(C)CCC(CN2CCN(c3ccc(C(=O)NS(=O)(=O)c4ccc(NCC5CCOCC5)c([N+](=O)[O-])c4)c(Oc4cnc5[nH]ccc5c4)c3)CC2)=C(c2ccc(Cl)cc2)C1 [Venetoclax] + CN(C)CCCOc1ccc(-c2ccc3ncc4c(c3c2)n(C2CCOCC2)c(=O)n4C)cn1 [AZD0156] (first compound max 1 µM, 7x7, partner max 1 µM)	-0.0225	0.0072	-0.0644	0.0539	0.0084	-0.0015	-0.0469	-0.0178	-0.07	-0.0264	-0.002	-0.0182	-0.0066	0.0022	-0.0057	0.0019	0.0423	-0.033	-0.0553	-0.0023
CCN(CCO)CCCOc1ccc2c(Nc3cc(CC(=O)Nc4cccc(F)c4)[nH]n3)ncnc2c1 [AZD2811] + C[C@@H]1COCCN1C2=NC(=NC(=C2)C3(CC3)[S@](=N)(=O)C)C4=C5C=CNC5=NC=C4 [AZD6738] (first compound max 1 µM, 7x7, partner max 10 µM)	-0.0399	-0.0231	-0.0565	-0.0763	-0.148	-0.0281	-0.0315	-0.0743	-0.0536	-0.0975	-0.0767	-0.0823	-0.033	-0.11	0.0145	0.0103	0.0731	-0.0354	-0.0394	-0.0667
NC1(C(=O)N[C@@H](CCO)c2ccc(Cl)cc2)CCN(c2ncnc3[nH]ccc23)CC1 [Capivasertib] + COc1nnc2ccc(N3CCC(c4ccc(OCCN5CCN(C)C(=O)[C@H]5C)cc4)CC3)nn12 [AZD5153] (first compound max 10 µM, 7x7, partner max 1 µM)	0.039	0.0433	-0.0333	0.0133	-0.0281	0.0344	0.0305	-0.0021	0.0058	0.0751	0.0113	-0.0632	0.0022	0.0506	-0.0239	0.0923	-0.0007	-0.0524	-0.0278	0.0004
CN(CCO)CC[C@H](CSc1ccccc1)Nc1ccc(S(=O)(=O)NC(=O)c2ccc(N3CCC([C@@H](O)c4ccccc4-c4ccc(Cl)cc4)CC3)cc2)cc1S(=O)(=O)C(F)(F)F [AZD4320] + Cn1cnc2c(F)c(Nc3ccc(Br)cc3Cl)c(C(=O)NOCCO)cc21 [Selumetinib] (first compound max 1 µM, 7x7, partner max 3 µM)	0.0039	0.0212	0.0784	0.0352	-0.0017	-0.0054	-0.0656	-0.0092	-0.0537	0.0287	0.0309	-0.0056	-0.0255	-0.0063	0.0143	-0.0023	-0.0215	0.043	0.0119	0.0022
CC1(C)CCC(CN2CCN(c3ccc(C(=O)NS(=O)(=O)c4ccc(NCC5CCOCC5)c([N+](=O)[O-])c4)c(Oc4cnc5[nH]ccc5c4)c3)CC2)=C(c2ccc(Cl)cc2)C1 [Venetoclax] + Cn1cnc2c(F)c(Nc3ccc(Br)cc3Cl)c(C(=O)NOCCO)cc21 [Selumetinib] (first compound max 1 µM, 7x7, partner max 3 µM)	-0.0576	-0.0315	-0.0467	-0.0228	-0.0418	-0.0052	-0.0321	-0.0369	-0.0609	-0.0134	-0.0128	-0.0235	-0.0387	-0.0188	-0.0042	-0.0232	0.0379	-0.0533	-0.0621	0.0022
COc1cccc2c1C(=O)c1c(O)c3c(c(O)c1C2=O)C[C@@](O)(C(=O)CO)C[C@@H]3O[C@H]1C[C@H](N)[C@H](O)[C@H](C)O1 [Doxorubicin] + Cc1cc2ncnn2cc1Nc1ncc2c(n1)n(C1CCOCC1)c(=O)n2C [AZD7648] (first compound max 1 µM, 7x7, partner max 10 µM)	0.0479	0.0402	0.0402	0.0582	0.0553	0.0506	0.016	0.0511	-0.0358	0.0569	-0.0073	0.0691	-0.0305	0.0345	0.0276	0.0917	0.129	0.0996	-0.0042	0.046
Cn1cnc2c(F)c(Nc3ccc(Br)cc3Cl)c(C(=O)NOCCO)cc21 [Selumetinib] + CC(C)n1c(=O)n(C)c2cnc3cc(F)c(-c4ccc(OCCCN5CCCCC5)nc4)cc3c21 [AZD1390] (first compound max 10 µM, 7x7, partner max 0.3 µM)	-0.0242	-0.024	-0.0045	-0.0098	-0.0283	-0.0185	-0.0324	-0.0437	-0.0464	-0.059	0.0231	-0.069	-0.0536	-0.0526	-0.0231	-0.034	-0.037	-0.0146	-0.0796	-0.0458
NC1(C(=O)N[C@@H](CCO)c2ccc(Cl)cc2)CCN(c2ncnc3[nH]ccc23)CC1 [Capivasertib] + CC(=O)c1c(C)c2cnc(Nc3ccc(N4CCNCC4)cn3)nc2n(C2CCCC2)c1=O [Palbociclib] (first compound max 10 µM, 7x7, partner max 10 µM)	0.0237	0.006	-0.0345	0.0391	-0.0485	0.0129	0.0103	-0.0661	0.001	-0.009	-0.0067	-0.0553	-0.0305	0.0301	-0.0092	-0.011	-0.0433	-0.0211	-0.0253	-0.0377
COc1nnc2ccc(N3CCC(c4ccc(OCCN5CCN(C)C(=O)[C@H]5C)cc4)CC3)nn12 [AZD5153] + CC1(C)CCC(CN2CCN(c3ccc(C(=O)NS(=O)(=O)c4ccc(NCC5CCOCC5)c([N+](=O)[O-])c4)c(Oc4cnc5[nH]ccc5c4)c3)CC2)=C(c2ccc(Cl)cc2)C1 [Venetoclax] (first compound max 1 µM, 7x7, partner max 1 µM)	-0.01	-0.105	-0.0455	-0.0687	-0.0428	-0.0522	-0.0571	-0.0574	-0.0308	-0.0739	-0.0517	-0.0166	-0.065	-0.062	-0.082	-0.0745	-0.008	-0.0325	-0.118	-0.0096
CN(CCO)CC[C@H](CSc1ccccc1)Nc1ccc(S(=O)(=O)NC(=O)c2ccc(N3CCC([C@@H](O)c4ccccc4-c4ccc(Cl)cc4)CC3)cc2)cc1S(=O)(=O)C(F)(F)F [AZD4320] + C[C@@H]1COCCN1C2=NC(=NC(=C2)C3(CC3)[S@](=N)(=O)C)C4=C5C=CNC5=NC=C4 [AZD6738] (first compound max 1 µM, 7x7, partner max 10 µM)	-0.0756	0.042	-0.0172	0.0028	-0.0251	0.0219	-0.0029	-0.0319	-0.0721	-0.0455	-0.0681	-0.0163	-0.0454	-0.005	-0.0103	0.0324	0.0545	-0.0255	-0.0216	-0.0289
COc1cccc(OCCCN)c1-c1cc(Nc2cnc(C#N)cn2)n[nH]1 [Prexasertib] + C=CCn1c(=O)c2cnc(Nc3ccc(N4CCN(C)CC4)cc3)nc2n1-c1cccc(C(C)(C)O)n1 [AZD1775] (first compound max 1 µM, partner max 1 µM)	0.0606	0.11	0.0569	0.0467	0.0317	0.0756	0.133	0.0651	-0.0048	0.12	0.0261	0.0912	0.0872	-0.0015	0.0109	-0.0182	0.0444	0.0405	0.0456	-0.0104
CC(=O)c1c(C)c2cnc(Nc3ccc(N4CCNCC4)cn3)nc2n(C2CCCC2)c1=O [Palbociclib] + Cn1cnc2c(F)c(Nc3ccc(Br)cc3Cl)c(C(=O)NOCCO)cc21 [Selumetinib] (first compound max 10 µM, 7x7, partner max 10 µM)	-0.0072	0.0424	-0.0292	0.0724	-0.0003	0.0339	-0.0459	-0.0499	-0.0006	0.0054	0.0282	-0.0394	-0.0471	-0.0587	-0.0083	-0.0403	-0.0528	-0.0084	-0.0288	-0.0534
Cc1c2c(nn1C)CSCc1cc(n(C)n1)CSc1cc(c3ccccc3c1)OCCCc1c(C(=O)O)n(C)c3c-2c(Cl)ccc13 [AZD5991] + Cn1cnc2c(F)c(Nc3ccc(Br)cc3Cl)c(C(=O)NOCCO)cc21 [Selumetinib] (first compound max 1 µM, 7x7, partner max 3 µM)	0.0368	0.0607	0.0356	0.0256	0.0415	0.0143	0.0046	-0.004	-0.0846	-0.0214	0.0339	-0.0188	-0.0664	0.0034	0.0018	0.0108	-0.0778	0.0248	-0.0427	0.0054
CC(=O)c1c(C)c2cnc(Nc3ccc(N4CCNCC4)cn3)nc2n(C2CCCC2)c1=O [Palbociclib] + Cc1c2c(nn1C)CSCc1cc(n(C)n1)CSc1cc(c3ccccc3c1)OCCCc1c(C(=O)O)n(C)c3c-2c(Cl)ccc13 [AZD5991] (first compound max 10 µM, 7x7, partner max 1 µM)	-0.0142	0.0029	-0.0486	-0.0325	-0.0277	-0.0089	0.0064	-0.0225	-0.0187	-0.0405	-0.0461	-0.021	-0.131	-0.0824	-0.0554	-0.0515	-0.0107	-0.0318	-0.0431	-0.0782

Source: the supplement of paper PMC11061612
